biological target: T1, OAT3 (Homo sapiens, UniProt Q8TCC7); test: Inhibition of 6-carboxyfluorescein uptake in HEK293/OAT3 cells; assay type: cell-based; settings: ratio of OAT3 IC50 to hURAT1 IC50 (selectivity)
T1 construct: host or cells: HEK293/OAT3 (hygromycin B selection)
T1 sequence (Q8TCC7 1-542): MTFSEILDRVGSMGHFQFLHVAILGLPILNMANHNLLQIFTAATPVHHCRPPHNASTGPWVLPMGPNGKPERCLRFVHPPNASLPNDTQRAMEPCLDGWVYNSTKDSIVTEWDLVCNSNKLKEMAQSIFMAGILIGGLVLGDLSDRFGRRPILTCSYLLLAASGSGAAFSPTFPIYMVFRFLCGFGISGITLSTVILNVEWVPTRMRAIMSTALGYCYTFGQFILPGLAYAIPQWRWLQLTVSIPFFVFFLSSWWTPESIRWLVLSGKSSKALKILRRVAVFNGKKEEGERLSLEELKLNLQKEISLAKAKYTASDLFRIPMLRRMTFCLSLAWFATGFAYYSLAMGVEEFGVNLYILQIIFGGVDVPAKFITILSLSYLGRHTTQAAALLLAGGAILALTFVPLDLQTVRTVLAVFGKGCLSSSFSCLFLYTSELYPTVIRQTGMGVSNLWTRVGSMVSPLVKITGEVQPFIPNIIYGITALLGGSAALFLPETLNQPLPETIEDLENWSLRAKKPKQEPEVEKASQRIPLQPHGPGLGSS
Method: 1. Reagents and Consumables
2. Culture Media and Solutions
Thaw medium: 90% DMEM+10% FBS+1× Pen/Strep, preserved at 4° C. for later use.
Culture medium: 90% DMEM+10% FBS+1× Pen/Strep+100 μg/mL Hygromycin B, preserved at 4° C. for later use.
5× Matrigel: 1 vial of Matrigel was thawed overnight at 4° C., then diluted to 500 mL with cold DMEM. The resulting solution was preserved at 4° C. for later use after subpackaging.
Uptake assay buffer: 487.5 mL HBSS buffer was mixed with 12.5 mL 1M HEPES, with the final HEPES concentration being 25 mM. This was prepared right before the experiment.
30 mM probenecid: 2 mg of the powder was dissolved in 233.62 μL of 100% DMSO. The resulting solution was preserved at −20° C. for later use after subpackaging.
The resulting solution was preserved at −20° C. for later use after subpackaging.
The resulting solution was preserved away from light at 4° C. for later use after subpackaging.
Envision multimode plate reader (with parameters as follows)
Emission wavelength: 590 nm
4. Experimental Procedures
The cells were quickly taken out from a liquid nitrogen tank and shaken in a water bath at 37° C. until completely thawed. The cell suspension was quickly added to a pre-heated culture medium and centrifuged at 1000 rpm for 5 min. The supernatant was discarded. A fresh pre-heated culture medium was added for resuspension. The cell suspension was transferred into a 100 mm dish and incubated at 37° C. at 5% CO2.
Typically, the cells were passaged every 2-3 days in a ratio of 1:3 to 1:5.
5× Matrigel was added to a 384-well cell plate at 5 μL/well for incubation in an incubator at 37° C. for 30 min, followed by digestion.
Cells were collected after digestion, counted, resuspended at 1×10^6 cells/mL using a culture medium, and added to a coated plate at 60 μL/well by using a Multidrop Combi to give a cell density of 6×10^4 cells/well, followed by incubating overnight at 37° C. at 5% CO2.
3) Preparation of Uptake Assay Buffer
On the day of experiment, fresh buffer was prepared as needed.
4) Preparation of Compounds (Using ECHO)
Working solutions of 11 concentrations were prepared for plotting a curve with stock solutions of 3 concentrations using PlateMap. The 3 concentrations were 30 mM, 0.3 mM, 0.003 mM, all formulated in DMSO.
5) Preparation of a Mixed Solution of 6-Carboxyfluorescein (6 μM) and Compounds
According to amount used, 6-carboxyfluorescein (1 mM) was diluted with uptake assay buffer to give a diluted 6-carboxyfluorescein solution (6 μM). […] The mixture was preserved away from light for later use. The concentration of DMSO was 2% at this time.
The cells were incubated overnight before the culture medium was carefully removed. Then 80 μL of uptake assay buffer was added to each well at room temperature for washing the cells 3 times. After washing, 20 μL of uptake assay buffer was added to each well.
The mixed solution of 6-CF (6 μM) and compounds, prepared in step 5, was transferred to a cell plate at 20 μL/well with Bravo. The mixed solution was centrifuged at 400 rpm for 1 min, and incubated away from light at room temperature for 10 min. At this time, the concentration of 6-CF became 3 μM, the concentration of the compound became the final concentration, and the concentration of DMSO became 1%.
The cells were washed 3 times with pre-cooled uptake assay buffer at 80 μL/well, to remove unbound 6-CF.
The plate was read on the Envision. The data were recorded and processed to calculate IC50.
According to the fluorescence signals of HPE and ZPE on each cell plate, the inhibition rate (%) of the compound in each well on the cell plate was calculated.
The XLfit software was used to plot the curve for calculating the IC50 values of the compounds. The IC50 value of the positive compound was also one of the criteria for controlling the quality of each experiment.

| SMILES | IC50, OAT3/IC50, hURAT1 |
| --- | --- |
| CCc1nc2ncc(Br)cn2c1C(=O)c1cc(Br)c(O)c(Br)c1 [Example 3, (6-bromo-2-ethylimidazo[1,2-a]pyrimidin-3-yl)(3,5-dibromo-4-hydroxyphenyl)methanone] | 8.9 |
| CCc1nc2ncc(F)cn2c1C(=O)c1cc(Br)c(O)c(Br)c1 [Example 4, (3,5-dibromo-4-hydroxyphenyl)(2-ethyl-6-fluoroimidazo[1,2-a]pyrimidin-3-yl)methanone] | 36.5 |
| CCc1nc2ncc(C(F)(F)F)cn2c1C(=O)c1cc(Br)c(O)c(Br)c1 [Example 5, (3,5-dibromo-4-hydroxyphenyl)(2-ethyl-6-(trifluoromethyl)imidazo[1,2-a]pyrimidin-3-yl)methanone] | 21.1 |
| CCc1nc2ncc(Cl)cn2c1C(=O)c1cc(Br)c(O)c(Br)c1 [Example 6, (6-chloro-2-ethylimidazo[1,2-a]pyrimidin-3-yl)(3,5-dibromo-4-hydroxyphenyl)methanone] | 24.8 |
| CCn1nc2ccc(F)cc2c1C(=O)c1cc(Br)c(O)c(Br)c1 [Example 9, (3,5-dibromo-4-hydroxyphenyl)(2-ethyl-5-fluoro-2H-indazol-3-yl) methanone] | 2.0 |
| CCc1nc2ncc(F)cn2c1C(=O)c1cc(Br)c(O)c(C#N)c1 [Example 14, 3-bromo-5-(2-ethyl-6-fluoroimidazo[1,2-a]pyrimidine-3-carbonyl)-2-hydroxybenzonitrile] | 3.6 |
| CCn1nc2ccncc2c1C(=O)c1cc(Br)c(O)c(Br)c1 [Example 16, (3,5-dibromo-4-hydroxyphenyl)(2-ethyl-2H-pyrazolo[4,3-c]pyridin-3-yl)methanone] | 3.1 |
| CCc1nc2ncc(F)cn2c1C(=O)c1cc(Br)c(O)c(C(F)(F)F)c1 [Example 18, (3-bromo-4-hydroxy-5-(trifluoromethyl)phenyl)(2-ethyl-6-fluoroimidazo[1,2-a]pyrimidin-3-yl)methanone] | 16.2 |
| CCc1nc2ncccn2c1C(=O)c1cc(Br)c(O)c(C#N)c1 [Example 22, 3-bromo-5-(2-ethylimidazo[1,2-a]pyrimidine-3-carbonyl)-2-hydroxybenzonitrile] | 1.4 |

Results, then the molecule that gave them:

| IC50, OAT3/IC50, hURAT1 | SMILES |
| --- | --- |
| 3.0 | CCc1nc2cc(C(F)(F)F)ncn2c1C(=O)c1cc(Br)c(O)c(Br)c1 [Example 7, (3,5-dibromo-4-hydroxyphenyl)(2-ethyl-7-(trifluoromethyl)imidazo[1,2-c]pyrimidin-3-yl)methanone] |
| 8.7 | CCc1nc2ncccn2c1C(=O)c1cc(Br)c(O)c(Br)c1 [Example 20, 2,6-dibromo-4-([2-ethylimidazo[1,2-a]pyrimidin-3-yl]carbonyl) phenol] |
| 5.5 | CCc1nc2cc(Cl)ncn2c1C(=O)c1cc(Br)c(O)c(Br)c1 [Example 21, (7-chloro-2-ethylimidazo[1,2-f]pyrimidin-3-yl)(3,5-dibromo-4-hydroxyphenyl)methanone] |
| 10.3 | CCc1nc2ncccn2c1C(=O)c1cc(Br)c(O)c(C(F)(F)F)c1 [Example 23, (3-bromo-4-hydroxy-5-(trifluoromethyl)phenyl)(2-ethylimidazo[1,2-a]pyrimidin-3-yl)methanone] |

Source: US11453674B2, “Heterocyclic compound, preparation method and use thereof in medicine” (SUZHOU SINOVENT PHARMACEUTICALS CO., LTD., priority 2019, dated 2022)
